Measured values from patent EP3741762A1, “OXALAMIDO-SUBSTITUTED TRICYCLIC INHIBITORS OF HEPATITIS B VIRUS” (priority 2019, dated 2020).

Test system: HBV
Assay: Anti-HBV activity in vitro: quantification of extracellular HBV DNA by direct qPCR in HepAD38 cells
Format: cell-based
Conditions: Hepatitis B virus, tetracycline-free medium, 96 hours at 37°C, reported as EC50 threshold value, read-out: HBV inh EC50
Source text: HepAD38 cell line (Ladner et al., Antimicrob Agents Chemother, 1997, 41, 1715-20) was used for HBV inhibition assays. HepAD38 is a subclone, derived from Hepatoblastoma cell line HepG2 (ATCC® Number: HB-8065™), that expresses HBV genome under the transcriptional control of a tetracycline-responsive promoter in a TET-OFF system: addition of tetracycline (TET) or doxycycline suppresses HBV replication, while its removal switches on the process allowing HBV viral particles release in the cell supernatant. HepAD38 cell line is maintained in DMEM/F12, supplemented with 10% of fetal bovine serum, 1% of glutamine, 1% of penicillin/streptomycin, 0.4 mg/ml G418 and 0,3 ug/ml tetracycline. For the HBV inhibition assay, doxycycline-free medium is used in order to allow virion production.
HBV inhibition activity in vitro was performed in 96 multiwell plates. During the initial (primary) screening, compounds were first tested in triplicates at concentrations of 0.02 µM, 0.1 µM, 0.5µM and 1µM. For selected compounds, an 8-point dose-response curve was obtained using 1:2 serial dilutions (starting from 0.01µM, 0.1µM, 0.4µM or 5 µM, depending on the degree of inhibition observed during the primary screening). From the dose-response curves, half maximal effective concentration (EC50) could be calculated (see also below).
In more detail, compounds - typically dissolved in DMSO stock solutions - were diluted to 2x the final desired concentration in 100 µl of the above medium (without doxycycline) and plated in three replicates in the 96-well plates.
Simultaneously, HepAD38 cells - extensively pre-washed in tetracycline-free medium in order to induce HBV production - were suspended at 2^∗10^4 cells in 100 µl of tetracycline-free medium and added to each well of the plate, to yield a final assay volume of 200 µl DMSO - used for stock solutions and compounds dilutions - which was always present in the assays at a final concentration of 0.5%.
Plates were then incubated 96 hours at 37°C and then subjected to cell viability assays and extracellular HBV quantification, in order to evaluate both the cytotoxic potential and the antiviral activity of compounds. Cytotoxicity was assessed by a commercial fluorescence assay that measures the metabolic activity of cells, directly related to cell viability (Cell Titer Blue, Promega). Anti-HBV activity was evaluated by quantification of extracellular HBV DNA with direct qPCR. In particular, supernatant was collected and centrifuged for cell debris clarification, viral DNA was extracted from virions by addition of lysis buffer (1 mM 1,4-dithiothreitol, 0.2% sodium dodecyl sulphate) and incubated at 95°C for 10 min. Samples were then diluted 1:40 and real time PCR amplification was performed with SYBR green assay (Power SYBR™ Green PCR Master Mix-Thermo Fisher Scientific) and specific HBV primer (HBV-DF:5'-[…]-3' (SEQ ID No. 1), HBV-DR:5'-[…]-3' (SEQ ID No.2)).
Antiviral activity data for each compound are reported as EC50 threshold value (see Table 1 legend). Excel and Graphpad Prism programs are typically used for data elaboration and EC50 calculation.

| SMILES | EC50 [nM] |
| --- | --- |
| Cc1cc(NC(=O)c2c3c(cn2C)S(=O)(=O)N[C@H]2CN(C(=O)C(=O)NC(C)C)C[C@H]2CO3)ccc1F [Example E21, (3aR,10aR)-N-(4-fluoro-3-methylphenyl)-2-(2-(isopropylamino)-2-oxoacetyl)-7-methyl-2,3,3a,4,10,10a-hexahydro-1H,7H-dipyrrolo[3,4-b:3',4'-f][1,4,5]oxathiazocine-8-carboxamide 5,5-dioxide] | < 500 |
| Cc1cc(NC(=O)c2c3c(cn2C)S(=O)(=O)N[C@H]2CN(C(=O)C(=O)NC4CCC4)C[C@H]2CO3)ccc1F [Example E22, (3aR,10aR)-2-(2-(cyclobutylamino)-2-oxoacetyl)-N-(4-fluoro-3-methylphenyl)-7-methyl-2,3,3a,4,10,10a-hexahydro-1H,7H-dipyrrolo[3,4-b:3',4'-f][1,4,5]oxathiazocine-8-carboxamide 5,5-dioxide] | < 500 |
| Cc1cc(NC(=O)c2c3c(cn2C)S(=O)(=O)N[C@H]2CN(C(=O)C(=O)NC4CC4)C[C@H]2CS3)ccc1F [Example E23, (3aR,10aR)-2-(2-(cyclopropylamino)-2-oxoacetyl)-N-(4-fluoro-3-methylphenyl)-7-methyl-2,3,3a,4,10,10a-hexahydro-1H,7H-dipyrrolo[3,4-c:3',4'-g][1,6,2]dithiazocine-8-carboxamide 5,5-dioxide] | < 500 |
| Cc1cc(NC(=O)c2c3c(cn2C)S(=O)(=O)N[C@H]2CN(C(=O)C(=O)N[C@H](C)C(F)(F)F)C[C@H]2CS3)ccc1F [Example E24, (3aR,10aR)-N-(4-fluoro-3-methylphenyl)-7-methyl-2-(2-oxo-2-(((R)-1,1,1-trifluoropropan-2-yl)amino)acetyl)-2,3,3a,4,10,10a-hexahydro-1H,7H-dipyrrolo[3,4-c:3',4'-g][1,6,2] dithiazocine-8-carboxamide 5,5-dioxide] | < 500 |
| Cc1cc(NC(=O)c2c3c(cn2C)S(=O)(=O)N[C@H]2CN(C(=O)C(=O)N4CC(F)(F)C4)C[C@H]2CO3)ccc1F [Example E29, (3aR,10aR)-2-(2-(3,3-difluoroazetidin-1-yl)-2-oxoacetyl)-N-(4-fluoro-3-methylphenyl)-7-methyl-2,3,3a,4,10,10a-hexahydro-1H,7H-dipyrrolo[3,4-b:3',4'-f][1,4,5]oxathiazocine-8-carboxamide 5,5-dioxide] | < 500 |
| Cc1cc(NC(=O)c2c3c(cn2C)S(=O)(=O)N[C@H]2CN(C(=O)C(=O)NC(C)(C)C(F)(F)F)C[C@H]2CO3)ccc1F [Example E32, (3aR,10aR)-N-(4-fluoro-3-methylphenyl)-7-methyl-2-(2-oxo-2-((1,1,1-trifluoro-2-methylpropan-2-yl)amino)acetyl)-2,3,3a,4,10,10a-hexahydro-1H,7H-dipyrrolo[3,4-b:3',4'-f][1,4,5]oxathiazocine-8-carboxamide 5,5-dioxide] | < 500 |
| Cc1cc(NC(=O)c2c3c(cn2C)S(=O)(=O)N[C@H]2CN(C(=O)C(=O)NC4(C(F)(F)F)CCC4)C[C@H]2CO3)ccc1F [Example E33, (3aR,10aR)-N-(4-fluoro-3-methylphenyl)-7-methyl-2-(2-oxo-2-((1-(trifluoromethyl)cyclobutyl)amino)acetyl)-2,3,3a,4,10,10a-hexahydro-1H,7H-dipyrrolo[3,4-b:3',4'-f][1,4,5]oxathiazocine-8-carboxamide 5,5-dioxide] | < 500 |
| Cc1cc(NC(=O)c2c3c(cn2C)S(=O)(=O)N[C@H]2CN(C(=O)C(N)=O)C[C@H]2CS3)ccc1F [Example E34, (3aR,10aR)-2-(2-amino-2-oxoacetyl)-N-(4-fluoro-3-methylphenyl)-7-methyl-2,3,3a,4,10,10a-hexahydro-1H,7H-dipyrrolo[3,4-c:3',4'-g][1,6,2]dithiazocine-8-carboxamide 5,5-dioxide] | < 500 |
| CNC(=O)C(=O)N1C[C@H]2CSc3c(cn(C)c3C(=O)Nc3ccc(F)c(C)c3)S(=O)(=O)N[C@H]2C1 [Example E35, (3aR,10aR)-N-(4-fluoro-3-methylphenyl)-7-methyl-2-(2-(methylamino)-2-oxoacetyl)-2,3,3a,4,10,10a-hexahydro-1H,7H-dipyrrolo[3,4-c:3',4'-g][1,6,2]dithiazocine-8-carboxamide 5,5-dioxide] | < 500 |
| Cc1cc(NC(=O)c2c3c(cn2C)S(=O)(=O)N[C@H]2CN(C(=O)C(=O)N4CC(F)(F)C4)C[C@H]2CS3)ccc1F [Example E36, (3aR,10aR)-2-(2-(3,3-difluoroazetidin-1-yl)-2-oxoacetyl)-N-(4-fluoro-3-methylphenyl)-7-methyl-2,3,3a,4,10,10a-hexahydro-1H,7H-dipyrrolo[3,4-c:3',4'-g][1,6,2]dithiazocine-8-carboxamide 5,5-dioxide] | < 500 |
| Cc1cc(NC(=O)c2c3c(cn2C)S(=O)(=O)N[C@H]2CN(C(=O)C(=O)N[C@@H](C)C(F)(F)F)C[C@H]2CS3)ccc1F [Example E37, (3aR,10aR)-N-(4-fluoro-3-methylphenyl)-7-methyl-2-(2-oxo-2-(((S)-1,1,1-trifluoropropan-2-yl)amino)acetyl)-2,3,3a,4,10,10a-hexahydro-1H,7H-dipyrrolo[3,4-c:3',4'-g][1,6,2]dithiazocine-8-carboxamide 5,5-dioxide] | < 500 |
| Cc1cc(NC(=O)c2c3c(cn2C)S(=O)(=O)N[C@H]2CN(C(=O)C(=O)NCC(F)(F)F)C[C@H]2CS3)ccc1F [Example E38, (3aR,10aR)-N-(4-fluoro-3-methylphenyl)-7-methyl-2-(2-oxo-2-((2,2,2-trifluoroethyl)amino)acetyl)-2,3,3a,4,10,10a-hexahydro-1H,7H-dipyrrolo[3,4-c:3',4'-g][1,6,2]dithiazocine-8-carboxamide 5,5-dioxide] | < 500 |
| Cc1cc(NC(=O)c2c3c(cn2C)S(=O)(=O)N[C@H]2CN(C(=O)C(=O)NCC4CC4)C[C@H]2CS3)ccc1F [Example E39, (3aR,10aR)-2-(2-((cyclopropylmethyl)amino)-2-oxoacetyl)-N-(4-fluoro-3-methylphenyl)-7-methyl-2,3,3a,4,10,10a-hexahydro-1H,7H-dipyrrolo[3,4-c:3',4'-g][1,6,2]dithiazocine-8-carboxamide 5,5-dioxide] | < 500 |
| Cc1cc(NC(=O)c2c3c(cn2C)S(=O)(=O)N[C@H]2CN(C(=O)C(=O)NC4(C)CC4)C[C@H]2CS3)ccc1F [Example E40, (3aR,10aR)-N-(4-fluoro-3-methylphenyl)-7-methyl-2-(2-((1-methylcyclopropyl)amino)-2-oxoacetyl)-2,3,3a,4,10,10a-hexahydro-1H,7H-dipyrrolo[3,4-c:3',4'-g][1,6,2]dithiazocine-8-carboxamide 5,5-dioxide] | < 500 |
| Cc1cc(NC(=O)c2c3c(cn2C)S(=O)(=O)N[C@H]2CN(C(=O)C(=O)NC4CC(F)(F)C4)C[C@H]2CS3)ccc1F [Example E41, (3aR,10aR)-2-(2-((3,3-difluorocyclobutyl)amino)-2-oxoacetyl)-N-(4-fluoro-3-methylphenyl)-7-methyl-2,3,3a,4,10,10a-hexahydro-1H,7H-dipyrrolo[3,4-c:3',4'-g][1,6,2]dithiazocine-8-carboxamide 5,5-dioxide] | < 500 |
| Cc1cc(NC(=O)c2c3c(cn2C)S(=O)(=O)N[C@H]2CN(C(=O)C(=O)NC4(C)COC4)C[C@H]2CS3)ccc1F [Example E42, (3aR,10aR)-N-(4-fluoro-3-methylphenyl)-7-methyl-2-(2-((3-methyloxetan-3-yl)amino)-2-oxoacetyl)-2,3,3a,4,10,10a-hexahydro-1H,7H-dipyrrolo[3,4-c:3',4'-g][1,6,2]dithiazocine-8-carboxamide 5,5-dioxide] | < 500 |
